Measurements as given in the supplement of paper PMC10307832.

Columns and labels:
Test in all cases: relative viability (nuclei count vs DMSO), 5 days (fraction); higher = more cells survive
kb NB 142-70 + Foretinib = compound: C1CSC2=C(C(=O)N1)SC3=C2C=C(C=C3)O [kb NB 142-70] + COc1cc2c(Oc3ccc(NC(=O)C4(C(=O)Nc5ccc(F)cc5)CC4)cc3F)ccnc2cc1OCCCN1CCOCC1 [Foretinib] (partner 0.25 µM)
How it was run: (§1)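 Lung cancer cell lines in 1536-well plates got either a single drug or a fixed anchor-drug dose together with five library-drug doses (not always all listed) in √10 steps, by pin tool, on the day after seeding. Nuclei were counted after 5 days, and relative viability is the treated-to-vehicle ratio of nuclei counts. Values are medians of duplicate plates.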

[1] = compound: NCC(=O)Nc1ccc(-n2nc(C(F)(F)F)cc2-c2ccc3c(ccc4ccccc43)c2)cc1 + COc1cccc2cc(-c3nc([C@H]4CC[C@H](C(=O)O)CC4)n4ncnc(N)c34)[nH]c12 [OSI-027] (partner 0.5 µM)
How it was run: as §1

[2] = compound: NCC(=O)Nc1ccc(-n2nc(C(F)(F)F)cc2-c2ccc3c(ccc4ccccc43)c2)cc1 + CS(=O)(=O)CCNCc1ccc(-c2ccc3ncnc(Nc4ccc(OCc5cccc(F)c5)c(Cl)c4)c3c2)o1 [Lapatinib] (partner 2 µM)
How it was run: as §1

[3] = compound: NCC(=O)Nc1ccc(-n2nc(C(F)(F)F)cc2-c2ccc3c(ccc4ccccc43)c2)cc1 + Nc1nc2[nH]cc(CCc3ccc(C(=O)N[C@@H](CCC(=O)O)C(=O)O)cc3)c2c(=O)[nH]1 [Pemetrexed] (partner 0.2 µM)
How it was run: as §1

Row | Cell Line | relative viability (kb NB 142-70 + Foretinib; first compound 0.1 µM) | relative viability (kb NB 142-70 + Foretinib; first compound 1 µM) | relative viability (kb NB 142-70 + Foretinib; first compound 3.162 µM) | relative viability ([1]; first compound 0.02 µM) | relative viability ([1]; first compound 0.06325 µM) | relative viability ([1]; first compound 0.2 µM) | relative viability ([1]; first compound 0.6325 µM) | relative viability ([1]; first compound 2 µM) | relative viability ([2]; first compound 0.02 µM) | relative viability ([2]; first compound 0.06325 µM) | relative viability ([2]; first compound 0.2 µM) | relative viability ([2]; first compound 0.6325 µM) | relative viability ([2]; first compound 2 µM) | relative viability ([3]; first compound 0.02 µM) | relative viability ([3]; first compound 0.06325 µM) | relative viability ([3]; first compound 0.2 µM) | relative viability ([3]; first compound 0.6325 µM) | relative viability ([3]; first compound 2 µM)
1 | HCC-827 | 1.08 | 0.981 | 0.852 | 0.771 | 0.756 | 0.751 | 0.745 | 0.734 | 0.178 | 0.201 | 0.172 | 0.199 | 0.23 | 0.217 | 0.211 | 0.277 | 0.251 | 0.254
2 | HOP-62 | 1.19 | 1.18 | 1.02 | 0.852 | 0.801 | 0.828 | 0.778 | 0.812 | 1.06 | 0.913 | 0.998 | 0.959 | 1.14 | 0.334 | 0.29 | 0.3 | 0.275 | 0.314
3 | IA-LM | 1.31 | 1.34 | 1.37 |  |  |  |  |  | 0.802 | 0.823 | 0.757 | 0.85 | 0.717 |  |  |  |  | 
4 | LC-2-ad | 0.977 | 0.953 | 0.668 | 0.755 | 0.911 | 0.647 | 0.75 | 1.05 | 0.967 | 0.932 | 1.02 | 0.96 | 1.06 | 0.28 | 0.265 | 0.292 | 0.307 | 0.281
5 | LCLC-97TM1 | 1.01 | 0.883 | 0.606 | 0.656 | 0.567 | 0.503 | 0.625 | 0.606 | 0.816 | 1.13 |  | 0.981 | 0.893 | 0.181 | 0.176 | 0.183 | 0.178 | 0.135
6 | LCLC-103H | 0.715 | 0.744 | 0.815 | 0.412 | 0.43 | 0.443 | 0.575 | 0.429 |  |  |  |  |  | 0.406 | 0.481 | 0.434 | 0.447 | 0.437
7 | LK-2 | 1.15 | 1.07 | 0.819 | 0.182 | 0.207 | 0.21 | 0.246 | 0.174 | 0.966 | 1.06 | 0.884 | 1 | 0.874 | 0.295 | 0.207 | 0.294 | 0.256 | 0.217
8 | LOU-NH91 | 0.898 | 0.889 | 0.829 | 0.752 | 0.737 | 0.711 | 0.716 | 0.735 | 0.848 | 0.678 | 0.781 | 0.797 | 0.767 | 0.356 | 0.393 | 0.375 | 0.389 | 0.34
9 | LU99A | 0.781 | 0.765 | 0.569 | 0.285 | 0.29 | 0.303 | 0.272 | 0.295 | 0.943 | 1.13 | 1.07 | 0.987 | 0.944 | 0.182 | 0.153 | 0.202 | 0.164 | 0.168
10 | LXF-289 | 0.973 | 1.01 | 0.813 | 0.67 | 0.801 | 0.787 | 0.819 | 0.713 | 0.953 | 0.953 | 0.916 | 0.891 | 0.887 | 0.913 | 0.956 | 0.914 | 0.926 | 0.767
11 | NCI-H23 | 1.06 | 0.819 | 0.642 | 0.576 | 0.664 | 0.809 | 0.608 | 0.531 | 1.18 | 0.96 | 1.12 | 1.12 | 0.955 | 0.656 | 0.707 | 0.56 | 0.63 | 0.665
12 | NCI-H322M | 0.891 | 1.04 | 1.04 | 0.532 | 0.536 | 0.556 | 0.546 | 0.566 | 0.617 | 0.62 | 0.681 | 0.561 | 0.558 | 0.562 | 0.617 | 0.535 | 0.643 | 0.668
13 | NCI-H358 | 0.57 | 0.521 | 0.101 | 0.749 | 0.842 | 0.84 | 0.711 | 0.834 | 0.553 | 0.323 | 0.41 | 0.528 | 0.491 | 0.168 | 0.164 | 0.179 | 0.193 | 0.185
14 | NCI-H441 | 0.939 | 1.15 | 0.459 | 0.647 | 0.675 | 0.613 | 0.551 | 0.631 |  |  |  |  |  | 0.253 | 0.279 | 0.273 | 0.259 | 0.243
15 | NCI-H522 |  |  |  |  | 0.785 | 0.697 | 0.699 | 0.713 |  |  |  |  |  | 0.968 | 0.973 | 0.874 | 0.86 | 1.07
16 | NCI-H727 | 1.06 | 0.969 | 1.15 | 0.533 | 0.504 | 0.579 | 0.694 | 0.737 | 1.02 | 0.968 | 0.655 | 0.917 | 0.9 |  |  |  |  | 
17 | NCI-H1299 | 1.08 | 1.12 | 1.11 |  |  |  |  |  | 0.987 | 0.943 | 1.02 | 0.952 | 0.972 |  |  |  |  | 
18 | NCI-H1623 | 0.932 | 0.843 | 0.722 | 0.439 | 0.475 | 0.395 | 0.494 | 0.432 |  |  |  |  |  |  |  |  |  | 
19 | NCI-H1648 |  |  |  | 0.248 | 0.262 | 0.257 | 0.227 | 0.273 |  |  |  |  |  | 0.625 | 0.636 | 0.647 | 0.706 | 0.687
20 | NCI-H1703 | 0.351 | 0.338 | 0.346 |  |  |  |  |  | 1.03 | 1.09 | 1.41 | 0.964 | 1.04 |  |  |  |  | 
21 | NCI-H1792 |  |  |  | 0.657 |  | 0.824 | 0.722 | 0.803 | 1 | 0.948 | 0.918 | 0.933 | 0.857 | 0.943 | 1.07 | 0.802 | 0.943 | 0.872
22 | NCI-H2342 | 0.96 | 1.03 | 0.978 | 0.666 | 0.726 | 0.635 | 0.539 | 0.648 |  |  |  |  |  | 0.796 | 0.757 | 0.764 | 0.762 | 0.812
23 | SW 900 | 1.06 | 1.2 | 0.436 |  | 0.54 | 0.627 | 0.648 | 0.507 |  |  |  |  |  | 0.501 | 0.495 | 0.453 | 0.508 | 0.495
